These results are taken from patent US20100160411A1, “BENZOXATHIINE AND BENZOXATHIOLE DERIVATIVES AND USES THEREOF” (Wyeth, priority 2006, published 2010).

Assay [1] concerns the target T1, human 5-HT2C receptor (Homo sapiens, UniProt P28335).
T1 sequence (P28335 33-458): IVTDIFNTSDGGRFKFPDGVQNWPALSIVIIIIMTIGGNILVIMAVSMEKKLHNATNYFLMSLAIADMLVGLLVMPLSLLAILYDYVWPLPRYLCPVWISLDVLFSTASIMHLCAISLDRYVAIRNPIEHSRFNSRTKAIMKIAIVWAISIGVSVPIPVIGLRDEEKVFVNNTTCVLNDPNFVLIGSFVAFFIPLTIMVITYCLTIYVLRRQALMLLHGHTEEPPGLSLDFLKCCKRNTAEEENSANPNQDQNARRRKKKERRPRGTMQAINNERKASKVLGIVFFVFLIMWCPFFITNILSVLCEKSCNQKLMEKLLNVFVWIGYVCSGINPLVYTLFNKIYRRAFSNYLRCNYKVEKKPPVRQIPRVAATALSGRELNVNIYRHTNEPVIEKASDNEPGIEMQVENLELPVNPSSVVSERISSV
Kind of assay: calcium mobilization (FLIPR) in CHO cells stably expressing the human 5-HT2C receptor. In kind it is cell-based. (In general: Calcium flux is commonly read through the fluorescence of an indicator in the cells.)

The target of assay [2] is T2, human 5-hydroxytryptamine-2C (h5-HT2C) receptor (Homo sapiens, UniProt P28335).
T2 construct: expressed in transfected cells; host or cells: CHO (Chinese Hamster Ovary) cells; membrane preparation
T2 sequence (P28335 33-458): T1 sequence (P28335 33-458)
The assay is described as follows: [125I]DOI binding to membranes of CHO cells expressing the h5-HT2C receptor.

[3] abbreviates: read-out: 5-HT2C Binding Ki avg.

Where two headings read alike, the source gives them in different places.

For orientation: Emax means the greatest response seen or fitted, relative to the assay's reference. Usually EC50 stands for the concentration at which the effect is half-maximal. The Ki is a dissociation constant, usually derived from enzyme kinetics or from competition with a known ligand. For `NCC1CSc2cc(F)cc(-c3c(Cl)cccc3Cl)c2O1` (stereo not shown) [Example 1, C-[8-(2,6-Dichloro-phenyl)-6-fluoro-2,3-dihydro-benzo[1,4]oxathiin-2-yl]-methylamine], in assay [1] (CHO, read-out: 5-HT2C Function EMax (%)), the Emax came out at 70%. Also, in assay [1] (calcium mobilization, CHO cells, FLIPR, read-out: 5-HT2C Function EC50), the EC50 came out at 356 nM. Also, in assay [2] (setting [3]), the Ki is 0.535 nM.

Turning to `NCC1C[S+]([O-])c2cc(F)cc(-c3c(Cl)cccc3Cl)c2O1` (stereo not shown) [Example 2, C-[8-(2,6-Dichloro-phenyl)-6-fluoro-4-oxo-3,4-dihydro-2H-4lambda*4*-benzo[1,4]oxathiin-2-yl]-methylamine], in assay [2] (setting [3]), the Ki stood at 388 nM.

In the case of `NCC1CS(=O)(=O)c2cc(F)cc(-c3c(Cl)cccc3Cl)c2O1` (stereo not shown) [Example 3, C-[8-(2,6-Dichloro-phenyl)-6-fluoro-4,4-dioxo-3,4-dihydro-2H-4lambda*6*-benzo[1,4]oxathiin-2-yl]-methylamine], the Ki in assay [2] (setting [3]) amounted to 11.7 nM.

On to `CSc1ccc2c(c1)C(N1CCN(C)CC1)Cc1ccccc1S2` (stereo not shown) [Methiothepin, reference compound], for which the Ki in assay [2] (reference compounds, 95% confidence interval in parentheses, [125I]DOI radioligand, CHO cell membranes, read-out: Ki) turned out to be 4.6 nM.

As usually defined, the Kd is the constant that tells how readily two partners part at equilibrium. Turning to `COc1cc(CC(C)N)c(OC)cc1I` (stereo not shown) [[125I] DOI, reference compound], in assay [2] (saturation binding with increasing concentrations of [125I] DOI, read-out: dissociation constant, KD), the Kd is 0.4 nM.
